This passage reports IC50 results from ChEMBL document CHEMBL3886736, “Substituted sulfonamides useful as antiapoptotic Bcl inhibitors” (2016).

In experiment [1] the target is Apoptosis regulator Bcl-2 (Homo sapiens, UniProt P10415). Briefly: Fluorescence Polarization Assay (FPA): The assays were performed in black flat-bottom 384-well plates. The final assay volume was 50 μl prepared from additions of Gst-Bcl-2 (Bcl-2: GENBANK® Accession No. P10415), fluoresceinated 18-mer BIM peptide (NH2-[…]-[FAM]) (SEQ ID NO: 1), and test compounds in assay buffer consisting of 20 mM Sodium Phosphate, 1 mM EDTA, 50 mM NaCl, and 0.05% Pluronic Acid. The reaction was incubated at room temperature for 60 minutes and fluorescence polarization of the reaction was detected on the LJL Plate Reader. Inhibition data were calculated from mP values generated by the no protein control reactions for 100% inhibition and vehicle-only reactions for 0% inhibition. The final concentrations of reagents in the assay were 4.9 nM BCL-2, 5 nM fluoresceinated 18-mer BIM peptide and 1% DMSO.

The next experiment concerns the target Bcl-2-like protein 1 (Homo sapiens, UniProt Q07817). Briefly: Fluorescence Resonance Energy Transfer Assay (FRET): The assays were performed in black flat-bottom 384-well plates. The final assay volume was 55 μl prepared from additions of Biotin-Bcl-xL (Bcl-xL: GENBANK® Accession No. Q07817), fluoresceinated 18-mer BIM peptide (NH2-[…]-[FAM]) (SEQ ID NO: 1), Streptavidin-Terbium FRET detection reagent, and test compounds in assay buffer consisting of 20 mM Sodium Phosphate, 1 mM EDTA, 50 mM NaCl, and 0.05% Pluronic Acid. The reaction was incubated at room temperature for 60 minutes. After 60 minutes, 5 μL of Streptavidin-Terbium FRET detection reagent (Perkin Elmer) was added to the reaction mixture and incubated at room temperature in the dark for 30 mins. The FRET signal generated by the reaction was detected on the Envision Plate Reader Inhibition data were calculated from FRET values generated by the no protein control reactions for 100% inhibition and vehicle-only reactions for 0% inhibition. The final concentration of reagents in the assay was 10 nM Bcl-xL, 5 nM fluo.

Chain of Apoptosis regulator Bcl-2 (P10415 whole entry): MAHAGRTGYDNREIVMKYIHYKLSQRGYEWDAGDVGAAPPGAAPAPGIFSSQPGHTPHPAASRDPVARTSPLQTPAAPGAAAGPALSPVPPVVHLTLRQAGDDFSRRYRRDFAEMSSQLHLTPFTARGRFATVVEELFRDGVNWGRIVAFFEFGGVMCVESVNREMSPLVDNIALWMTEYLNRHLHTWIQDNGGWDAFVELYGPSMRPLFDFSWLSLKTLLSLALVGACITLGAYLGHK
Chain of Bcl-2-like protein 1 (Q07817 whole entry): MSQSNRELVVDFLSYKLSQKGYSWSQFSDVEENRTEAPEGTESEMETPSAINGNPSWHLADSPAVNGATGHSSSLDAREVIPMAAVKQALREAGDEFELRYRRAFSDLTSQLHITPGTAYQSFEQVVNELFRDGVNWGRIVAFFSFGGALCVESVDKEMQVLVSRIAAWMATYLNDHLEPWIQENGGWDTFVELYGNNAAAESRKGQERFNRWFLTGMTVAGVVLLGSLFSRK

As a reminder, the IC50 is the point on the concentration scale where inhibition reaches its midpoint. Take `CCCCN(CCCC)C(=O)c1cn(CCN2CCOCC2)c(-c2ccc(C(=O)NS(=O)(=O)c3ccc4ccccc4c3)cc2C(=O)N2Cc3ccccc3C[C@H]2CO)n1`: the IC50 in experiment [1] was 120 nM; at Bcl-2-like protein 1, 60 nM.

Turning to `Cc1c(Cl)c(C(=O)NCc2ccc(-c3ccc(CC(=O)O)cc3)cc2)nn1-c1ccc(C(=O)NS(=O)(=O)c2ccc3c(c2)CCN3Cc2ccc(Cl)c(Cl)c2)cc1C(=O)N1CCc2ccccc2C1`, the IC50 in experiment [1] is 50 nM; on Bcl-2-like protein 1, 8070 nM.

`CCCCN(CCCC)C(=O)c1cn(CCCN(C)C)c(-c2ccc(C(=O)NS(=O)(=O)c3ccc4ccccc4c3)cc2C(=O)N2CCc3ccccc3C2)n1`: the IC50 in experiment [1] was 200 nM; on Bcl-2-like protein 1, 30 nM.
